Measured values published in ChEMBL document CHEMBL4507282, “Data for DCP probe BI-1950” (2021).

How the values were obtained:
[1] = system: Tyrosine-protein kinase ABL1 (Homo sapiens), P00519 [F317I]; settings: Compound concentration 1000.0 nM
[2] = biological target: Activin receptor type-2B (Homo sapiens) (UniProt Q13705); settings: Compound concentration 1000.0 nM
[3] = system: ALK tyrosine kinase receptor (Homo sapiens), Q9UM73 [L1196M]; settings: Compound concentration 1000.0 nM
[4] = biological target: Ankyrin repeat and protein kinase domain-containing protein 1 (Homo sapiens) (UniProt Q8NFD2); settings: Compound concentration 1000.0 nM
[5] = biological target: Calcium/calmodulin-dependent protein kinase type II subunit gamma (Homo sapiens) (UniProt Q13555); settings: Compound concentration 1000.0 nM
[6] = biological target: Calcium/calmodulin-dependent protein kinase kinase 1 (Homo sapiens) (UniProt Q8N5S9); settings: Compound concentration 1000.0 nM
[7] = biological target: Cyclin-dependent kinase 5 (Homo sapiens) (UniProt Q00535); settings: Compound concentration 1000.0 nM
[8] = biological target: Cyclin-dependent kinase-like 1 (Homo sapiens) (UniProt Q00532); settings: Compound concentration 1000.0 nM
[9] = biological target: Citron Rho-interacting kinase (Homo sapiens) (UniProt O14578); settings: Compound concentration 1000.0 nM
[10] = biological target: Dual specificity protein kinase CLK2 (Homo sapiens) (UniProt P49760); settings: Compound concentration 1000.0 nM
[11] = biological target: Dual specificity protein kinase CLK4 (Homo sapiens) (UniProt Q9HAZ1); settings: Compound concentration 1000.0 nM
[12] = biological target: Macrophage colony-stimulating factor 1 receptor (Homo sapiens) (UniProt P07333); settings: Compound concentration 1000.0 nM
[13] = biological target: Casein kinase I isoform gamma-3 (Homo sapiens) (UniProt Q9Y6M4); settings: Compound concentration 1000.0 nM
[14] = biological target: Death-associated protein kinase 1 (Homo sapiens) (UniProt P53355); settings: Compound concentration 1000.0 nM
[15] = biological target: Serine/threonine-protein kinase DCLK3 (Homo sapiens) (UniProt Q9C098); settings: Compound concentration 1000.0 nM
[16] = system: Epidermal growth factor receptor (Homo sapiens), P00533 [L858R]; settings: Compound concentration 1000.0 nM
[17] = system: Epidermal growth factor receptor (Homo sapiens), P00533 [L858R,T790M]; settings: Compound concentration 1000.0 nM
[18] = biological target: Eukaryotic translation initiation factor 2-alpha kinase 1 (Homo sapiens) (UniProt Q9BQI3); settings: Compound concentration 1000.0 nM
[19] = biological target: Ephrin type-A receptor 3 (Homo sapiens) (UniProt P29320); settings: Compound concentration 1000.0 nM
[20] = biological target: Ephrin type-A receptor 6 (Homo sapiens) (UniProt Q9UF33); settings: Compound concentration 1000.0 nM
[21] = biological target: Ephrin type-A receptor 7 (Homo sapiens) (UniProt Q15375); settings: Compound concentration 1000.0 nM
[22] = system: Fibroblast growth factor receptor 3 (Homo sapiens), P22607 [G697C]; settings: Compound concentration 1000.0 nM
[23] = biological target: Vascular endothelial growth factor receptor 3 (Homo sapiens) (UniProt P35916); settings: Compound concentration 1000.0 nM
[24] = biological target: Glycogen synthase kinase-3 alpha (Homo sapiens) (UniProt P49840); settings: Compound concentration 1000.0 nM
[25] = biological target: Insulin receptor (Homo sapiens) (UniProt P06213); settings: Compound concentration 1000.0 nM
[26] = biological target: Tyrosine-protein kinase ITK/TSK (Homo sapiens) (UniProt Q08881); settings: Compound concentration 1000.0 nM
[27] = biological target: Mitogen-activated protein kinase 8 (Homo sapiens) (UniProt P45983); settings: Compound concentration 1000.0 nM
[28] = biological target: Tyrosine-protein kinase Lyn (Homo sapiens) (UniProt P07948); settings: Compound concentration 1000.0 nM
[29] = biological target: MAP/microtubule affinity-regulating kinase 3 (Homo sapiens) (UniProt P27448); settings: Compound concentration 1000.0 nM
[30] = biological target: Dual specificity mitogen-activated protein kinase kinase 1 (Homo sapiens) (UniProt Q02750); settings: Compound concentration 1000.0 nM
[31] = biological target: Myosin light chain kinase (Homo sapiens) (UniProt Q32MK0); settings: Compound concentration 1000.0 nM
[32] = biological target: Mitogen-activated protein kinase kinase kinase 14 (Homo sapiens) (UniProt Q99558); settings: Compound concentration 1000.0 nM
[33] = biological target: Phosphatidylinositol 4,5-bisphosphate 3-kinase catalytic subunit alpha isoform (Homo sapiens) (UniProt P42336); settings: Compound concentration 1000.0 nM
[34] = biological target: Phosphatidylinositol 4,5-bisphosphate 3-kinase catalytic subunit delta isoform (Homo sapiens) (UniProt O00329); settings: Compound concentration 1000.0 nM
[35] = biological target: Serine/threonine-protein kinase D1 (Homo sapiens) (UniProt Q15139); settings: Compound concentration 1000.0 nM
[36] = biological target: Receptor-interacting serine/threonine-protein kinase 2 (Homo sapiens) (UniProt O43353); settings: Compound concentration 1000.0 nM
[37] = biological target: Ribosomal protein S6 kinase alpha-5 (Homo sapiens) (UniProt O75582); settings: Compound concentration 1000.0 nM
[38] = biological target: Ribosomal protein S6 kinase alpha-2 (Homo sapiens) (UniProt Q15349); settings: Compound concentration 1000.0 nM
[39] = biological target: Serine/threonine-protein kinase SIK2 (Homo sapiens) (UniProt Q9H0K1); settings: Compound concentration 1000.0 nM
[40] = biological target: NT-3 growth factor receptor (Homo sapiens) (UniProt Q16288); settings: Compound concentration 1000.0 nM
[41] = biological target: Tyrosine-protein kinase receptor TYRO3 (Homo sapiens) (UniProt Q06418); settings: Compound concentration 1000.0 nM
[42] = biological target: Serine/threonine-protein kinase ULK1 (Homo sapiens) (UniProt O75385); settings: Compound concentration 1000.0 nM
[43] = biological target: 5-hydroxytryptamine receptor 6 (Homo sapiens) (UniProt P50406); settings: Compound concentration 10.0 uM
[44] = biological target: Histamine H4 receptor (Homo sapiens) (UniProt Q9H3N8); settings: Compound concentration 10.0 uM
[45] = biological target: Alpha-2B adrenergic receptor (Homo sapiens) (UniProt P18089); settings: Compound concentration 10.0 uM
[46] = biological target: Beta-1 adrenergic receptor (Homo sapiens) (UniProt P08588); settings: Compound concentration 10.0 uM

Sequence of Calcium/calmodulin-dependent protein kinase type II subunit gamma (Homo sapiens) (Q13555 whole entry): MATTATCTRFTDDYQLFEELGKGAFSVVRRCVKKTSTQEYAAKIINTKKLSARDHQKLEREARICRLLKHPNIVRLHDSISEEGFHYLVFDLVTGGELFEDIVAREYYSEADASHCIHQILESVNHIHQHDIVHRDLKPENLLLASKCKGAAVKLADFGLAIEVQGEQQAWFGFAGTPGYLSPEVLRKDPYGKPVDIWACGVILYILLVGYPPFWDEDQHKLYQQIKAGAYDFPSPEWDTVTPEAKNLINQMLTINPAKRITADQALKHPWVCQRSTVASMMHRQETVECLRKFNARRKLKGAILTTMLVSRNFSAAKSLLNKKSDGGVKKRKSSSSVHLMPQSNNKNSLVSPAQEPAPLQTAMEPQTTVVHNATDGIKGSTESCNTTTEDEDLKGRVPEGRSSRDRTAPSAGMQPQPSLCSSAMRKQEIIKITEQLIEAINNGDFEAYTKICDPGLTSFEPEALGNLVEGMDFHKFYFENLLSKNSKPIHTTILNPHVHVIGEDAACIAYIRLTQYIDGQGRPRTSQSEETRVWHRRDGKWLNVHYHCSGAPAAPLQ
Sequence of 5-hydroxytryptamine receptor 6 (Homo sapiens) (P50406 whole entry): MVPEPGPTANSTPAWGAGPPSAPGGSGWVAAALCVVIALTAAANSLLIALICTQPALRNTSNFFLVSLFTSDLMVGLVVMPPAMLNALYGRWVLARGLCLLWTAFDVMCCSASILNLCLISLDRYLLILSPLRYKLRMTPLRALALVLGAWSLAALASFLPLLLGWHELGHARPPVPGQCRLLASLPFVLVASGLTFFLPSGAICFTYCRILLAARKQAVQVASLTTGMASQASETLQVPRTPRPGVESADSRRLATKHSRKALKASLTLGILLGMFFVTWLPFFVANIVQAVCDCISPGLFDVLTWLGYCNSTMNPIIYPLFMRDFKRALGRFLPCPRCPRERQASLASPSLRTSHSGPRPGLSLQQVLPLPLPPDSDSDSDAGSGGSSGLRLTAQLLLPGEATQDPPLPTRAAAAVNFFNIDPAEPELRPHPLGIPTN
Sequence of Receptor-interacting serine/threonine-protein kinase 2 (Homo sapiens) (O43353 whole entry): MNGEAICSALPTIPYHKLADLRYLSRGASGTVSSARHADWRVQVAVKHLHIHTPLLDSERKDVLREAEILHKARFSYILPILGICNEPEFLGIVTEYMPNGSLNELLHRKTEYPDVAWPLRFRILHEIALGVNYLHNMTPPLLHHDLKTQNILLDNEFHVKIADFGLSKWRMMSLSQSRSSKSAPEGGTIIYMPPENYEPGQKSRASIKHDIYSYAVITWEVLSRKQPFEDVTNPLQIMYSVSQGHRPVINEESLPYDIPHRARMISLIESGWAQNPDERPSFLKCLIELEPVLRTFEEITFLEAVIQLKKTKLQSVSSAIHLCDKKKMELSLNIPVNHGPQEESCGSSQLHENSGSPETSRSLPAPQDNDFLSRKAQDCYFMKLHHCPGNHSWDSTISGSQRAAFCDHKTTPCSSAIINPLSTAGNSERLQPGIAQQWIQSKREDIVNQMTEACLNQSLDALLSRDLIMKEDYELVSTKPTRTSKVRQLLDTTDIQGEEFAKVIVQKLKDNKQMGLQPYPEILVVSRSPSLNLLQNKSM
Sequence of Myosin light chain kinase (Homo sapiens) (Q32MK0 whole entry): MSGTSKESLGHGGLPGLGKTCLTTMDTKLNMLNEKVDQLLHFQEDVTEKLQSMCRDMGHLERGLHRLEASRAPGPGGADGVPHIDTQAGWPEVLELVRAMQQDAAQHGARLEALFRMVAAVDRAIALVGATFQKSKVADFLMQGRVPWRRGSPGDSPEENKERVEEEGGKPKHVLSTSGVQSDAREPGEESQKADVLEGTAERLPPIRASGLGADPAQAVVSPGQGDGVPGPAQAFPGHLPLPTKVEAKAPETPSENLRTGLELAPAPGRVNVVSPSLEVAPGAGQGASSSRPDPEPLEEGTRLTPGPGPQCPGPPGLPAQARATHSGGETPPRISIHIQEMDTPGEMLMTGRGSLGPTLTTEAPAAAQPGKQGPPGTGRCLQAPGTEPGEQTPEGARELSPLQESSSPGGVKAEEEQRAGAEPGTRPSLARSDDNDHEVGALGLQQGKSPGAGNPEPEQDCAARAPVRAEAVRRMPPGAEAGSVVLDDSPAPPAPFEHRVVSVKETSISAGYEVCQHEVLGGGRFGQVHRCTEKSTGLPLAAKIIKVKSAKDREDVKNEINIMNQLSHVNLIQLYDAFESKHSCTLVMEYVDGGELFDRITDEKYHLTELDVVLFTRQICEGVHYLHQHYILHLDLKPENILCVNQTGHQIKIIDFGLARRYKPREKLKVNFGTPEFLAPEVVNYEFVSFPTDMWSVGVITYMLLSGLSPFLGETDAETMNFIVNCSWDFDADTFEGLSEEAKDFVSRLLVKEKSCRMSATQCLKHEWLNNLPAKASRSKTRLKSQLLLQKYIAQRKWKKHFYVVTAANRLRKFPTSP
Sequence of Dual specificity protein kinase CLK2 (Homo sapiens) (P49760 whole entry, looked up): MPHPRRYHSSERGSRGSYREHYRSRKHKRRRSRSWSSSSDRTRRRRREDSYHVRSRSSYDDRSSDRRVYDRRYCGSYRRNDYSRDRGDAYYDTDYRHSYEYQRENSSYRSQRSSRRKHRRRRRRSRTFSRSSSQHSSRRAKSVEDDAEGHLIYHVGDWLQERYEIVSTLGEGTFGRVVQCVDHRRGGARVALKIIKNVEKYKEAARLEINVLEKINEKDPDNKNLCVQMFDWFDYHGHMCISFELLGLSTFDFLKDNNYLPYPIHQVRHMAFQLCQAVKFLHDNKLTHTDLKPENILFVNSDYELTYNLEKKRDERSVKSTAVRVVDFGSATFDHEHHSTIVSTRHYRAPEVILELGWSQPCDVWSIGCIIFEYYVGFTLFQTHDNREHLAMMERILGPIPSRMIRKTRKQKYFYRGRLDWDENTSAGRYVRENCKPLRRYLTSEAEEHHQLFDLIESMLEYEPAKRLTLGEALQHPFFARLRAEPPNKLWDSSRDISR
Sequence of Ephrin type-A receptor 3 (Homo sapiens) (P29320 whole entry): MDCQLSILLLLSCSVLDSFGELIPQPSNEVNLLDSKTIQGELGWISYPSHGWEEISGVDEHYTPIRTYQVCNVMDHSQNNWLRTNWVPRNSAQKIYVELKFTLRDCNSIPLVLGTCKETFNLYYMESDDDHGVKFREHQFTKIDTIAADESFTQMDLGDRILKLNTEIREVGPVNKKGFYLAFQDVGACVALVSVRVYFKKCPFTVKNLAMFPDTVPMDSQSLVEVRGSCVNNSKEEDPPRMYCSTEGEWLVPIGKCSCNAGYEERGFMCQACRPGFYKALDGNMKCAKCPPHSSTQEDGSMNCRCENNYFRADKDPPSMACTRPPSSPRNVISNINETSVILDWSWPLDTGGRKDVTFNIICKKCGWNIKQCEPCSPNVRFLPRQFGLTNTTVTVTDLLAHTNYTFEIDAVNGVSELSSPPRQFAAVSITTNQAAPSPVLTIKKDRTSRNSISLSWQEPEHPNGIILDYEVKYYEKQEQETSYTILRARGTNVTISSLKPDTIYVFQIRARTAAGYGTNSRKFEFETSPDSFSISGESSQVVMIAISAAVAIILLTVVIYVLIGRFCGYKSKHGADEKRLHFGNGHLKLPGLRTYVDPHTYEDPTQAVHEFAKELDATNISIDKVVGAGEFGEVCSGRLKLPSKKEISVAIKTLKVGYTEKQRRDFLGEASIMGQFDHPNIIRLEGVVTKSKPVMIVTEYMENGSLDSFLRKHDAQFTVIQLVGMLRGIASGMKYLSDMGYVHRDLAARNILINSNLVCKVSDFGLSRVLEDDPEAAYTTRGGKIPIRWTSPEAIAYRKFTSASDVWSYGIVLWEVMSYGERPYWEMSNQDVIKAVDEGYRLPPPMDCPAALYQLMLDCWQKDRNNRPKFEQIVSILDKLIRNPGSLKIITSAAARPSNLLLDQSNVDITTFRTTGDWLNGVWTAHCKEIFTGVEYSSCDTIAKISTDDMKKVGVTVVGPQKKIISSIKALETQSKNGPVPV
Sequence of Calcium/calmodulin-dependent protein kinase kinase 1 (Homo sapiens) (Q8N5S9 whole entry, looked up): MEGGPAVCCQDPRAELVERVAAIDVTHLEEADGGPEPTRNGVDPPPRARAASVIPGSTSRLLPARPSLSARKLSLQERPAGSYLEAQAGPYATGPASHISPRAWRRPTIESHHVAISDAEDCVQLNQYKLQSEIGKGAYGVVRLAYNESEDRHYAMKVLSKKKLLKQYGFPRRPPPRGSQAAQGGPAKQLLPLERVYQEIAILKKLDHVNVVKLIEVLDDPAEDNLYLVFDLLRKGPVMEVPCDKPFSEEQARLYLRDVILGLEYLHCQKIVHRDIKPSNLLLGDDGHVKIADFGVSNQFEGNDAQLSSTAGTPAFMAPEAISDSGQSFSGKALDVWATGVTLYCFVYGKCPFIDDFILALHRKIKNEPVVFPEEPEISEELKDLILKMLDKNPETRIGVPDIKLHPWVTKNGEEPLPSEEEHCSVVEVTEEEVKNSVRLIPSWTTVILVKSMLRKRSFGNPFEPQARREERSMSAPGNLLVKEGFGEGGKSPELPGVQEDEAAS
Sequence of Activin receptor type-2B (Homo sapiens) (Q13705 whole entry): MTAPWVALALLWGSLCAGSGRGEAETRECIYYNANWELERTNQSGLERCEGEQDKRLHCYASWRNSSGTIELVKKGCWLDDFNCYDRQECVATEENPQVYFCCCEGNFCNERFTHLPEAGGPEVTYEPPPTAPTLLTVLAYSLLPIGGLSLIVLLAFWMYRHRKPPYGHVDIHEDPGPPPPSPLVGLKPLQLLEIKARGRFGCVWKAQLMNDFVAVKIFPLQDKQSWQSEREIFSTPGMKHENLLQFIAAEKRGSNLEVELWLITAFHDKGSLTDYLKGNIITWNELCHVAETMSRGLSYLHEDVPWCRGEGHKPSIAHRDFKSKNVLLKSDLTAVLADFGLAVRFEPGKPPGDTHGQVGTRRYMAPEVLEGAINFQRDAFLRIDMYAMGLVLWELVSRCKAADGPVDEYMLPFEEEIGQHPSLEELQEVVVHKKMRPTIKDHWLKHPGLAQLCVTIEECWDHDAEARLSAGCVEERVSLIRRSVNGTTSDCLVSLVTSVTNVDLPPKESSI

C[C@H](NC(=O)c1cnc2n1[C@](C)(Cc1ccc(C#N)cc1)C(=O)N2c1cc(Cl)c(F)c(Cl)c1)C(=O)NC1(c2ccccn2)CC1 [BI 1950]
inactive: residual activity [1] 78% | residual activity [2] 100% | residual activity [3] 100% | residual activity [4] 100% | residual activity [5] 100% | residual activity [6] 100% | residual activity [7] 100% | residual activity [8] 73% | residual activity [9] 100% | residual activity [10] 97% | residual activity [11] 88% | residual activity [12] 100% | residual activity [13] 100% | residual activity [14] 100% | residual activity [15] 100% | residual activity [16] 100% | residual activity [17] 82% | residual activity [18] 93% | residual activity [19] 88% | residual activity [20] 100% | residual activity [21] 84% | residual activity [22] 100% | residual activity [23] 100% | residual activity [24] 100% | residual activity [25] 100% | residual activity [26] 83% | residual activity [27] 81% | residual activity [28] 100% | residual activity [29] 92% | residual activity [30] 92% | residual activity [31] 100% | residual activity [32] 100% | residual activity [33] 100% | residual activity [34] 95% | residual activity [35] 100% | residual activity [36] 68% | residual activity [37] 96% | residual activity [38] 100% | residual activity [39] 100% | residual activity [40] 100% | residual activity [41] 100% | residual activity [42] 100% | inhibition [43] 6.67% | inhibition [44] 9.55% | inhibition [45] -3.79% | inhibition [46] 24.1%

C[C@@]1(Cc2ccc(C#N)cc2)C(=O)N(c2cc(Cl)cc(Cl)c2)c2ncc(C(=O)NC3(c4nc(C5CCC5)no4)CC3)n21 [BI 9446]
inactive: residual activity [1] 96% | residual activity [2] 100% | residual activity [3] 100% | residual activity [4] 100% | residual activity [5] 100% | residual activity [6] 100% | residual activity [7] 100% | residual activity [8] 100% | residual activity [9] 100% | residual activity [10] 100% | residual activity [11] 97% | residual activity [12] 100% | residual activity [13] 100% | residual activity [14] 100% | residual activity [15] 88% | residual activity [16] 100% | residual activity [17] 79% | residual activity [18] 100% | residual activity [19] 83% | residual activity [20] 88% | residual activity [21] 92% | residual activity [22] 100% | residual activity [23] 100% | residual activity [24] 100% | residual activity [25] 89% | residual activity [26] 92% | residual activity [27] 100% | residual activity [28] 95% | residual activity [29] 100% | residual activity [30] 97% | residual activity [31] 87% | residual activity [32] 100% | residual activity [33] 87% | residual activity [34] 73% | residual activity [35] 86% | residual activity [36] 91% | residual activity [37] 100% | residual activity [38] 100% | residual activity [39] 100% | residual activity [40] 100% | residual activity [41] 100% | residual activity [42] 100% | inhibition [43] 16.1% | inhibition [44] 27.6% | inhibition [45] 15% | inhibition [46] 29.7%
